Data from ChEMBL document CHEMBL1201862, “PubChem BioAssay data set” (2004).
Active and inactive are the calls of the source.

Experiments:
[1] = target: T1, E3 ubiquitin-protein ligase XIAP (Homo sapiens, UniProt P98170); test: Counter Screen using XIAP-Bir3 for Chemical Antagonists of Bir1/2 domains of IAP-family anti-apoptotic proteins. [Related pubchem assays (depositor defined):AID1018, AID1449, AID1514, AID1638, AID1749, AID1750, AID488957, AID488963]
[2] = target: T1, E3 ubiquitin-protein ligase XIAP; test: small molecules displacing peptide from XIAP – biochemical, IAP family, fluorescence polarization (AID 1018); assay type: functional
[3] = target: T2, Voltage-gated N-type calcium channel alpha-1B subunit/Amyloid beta A4 precursor protein-binding family A member 1 (Homo sapiens, UniProt Q00975+Q02410); assay type: protein assay
T2 sequence (Q00975 whole entry): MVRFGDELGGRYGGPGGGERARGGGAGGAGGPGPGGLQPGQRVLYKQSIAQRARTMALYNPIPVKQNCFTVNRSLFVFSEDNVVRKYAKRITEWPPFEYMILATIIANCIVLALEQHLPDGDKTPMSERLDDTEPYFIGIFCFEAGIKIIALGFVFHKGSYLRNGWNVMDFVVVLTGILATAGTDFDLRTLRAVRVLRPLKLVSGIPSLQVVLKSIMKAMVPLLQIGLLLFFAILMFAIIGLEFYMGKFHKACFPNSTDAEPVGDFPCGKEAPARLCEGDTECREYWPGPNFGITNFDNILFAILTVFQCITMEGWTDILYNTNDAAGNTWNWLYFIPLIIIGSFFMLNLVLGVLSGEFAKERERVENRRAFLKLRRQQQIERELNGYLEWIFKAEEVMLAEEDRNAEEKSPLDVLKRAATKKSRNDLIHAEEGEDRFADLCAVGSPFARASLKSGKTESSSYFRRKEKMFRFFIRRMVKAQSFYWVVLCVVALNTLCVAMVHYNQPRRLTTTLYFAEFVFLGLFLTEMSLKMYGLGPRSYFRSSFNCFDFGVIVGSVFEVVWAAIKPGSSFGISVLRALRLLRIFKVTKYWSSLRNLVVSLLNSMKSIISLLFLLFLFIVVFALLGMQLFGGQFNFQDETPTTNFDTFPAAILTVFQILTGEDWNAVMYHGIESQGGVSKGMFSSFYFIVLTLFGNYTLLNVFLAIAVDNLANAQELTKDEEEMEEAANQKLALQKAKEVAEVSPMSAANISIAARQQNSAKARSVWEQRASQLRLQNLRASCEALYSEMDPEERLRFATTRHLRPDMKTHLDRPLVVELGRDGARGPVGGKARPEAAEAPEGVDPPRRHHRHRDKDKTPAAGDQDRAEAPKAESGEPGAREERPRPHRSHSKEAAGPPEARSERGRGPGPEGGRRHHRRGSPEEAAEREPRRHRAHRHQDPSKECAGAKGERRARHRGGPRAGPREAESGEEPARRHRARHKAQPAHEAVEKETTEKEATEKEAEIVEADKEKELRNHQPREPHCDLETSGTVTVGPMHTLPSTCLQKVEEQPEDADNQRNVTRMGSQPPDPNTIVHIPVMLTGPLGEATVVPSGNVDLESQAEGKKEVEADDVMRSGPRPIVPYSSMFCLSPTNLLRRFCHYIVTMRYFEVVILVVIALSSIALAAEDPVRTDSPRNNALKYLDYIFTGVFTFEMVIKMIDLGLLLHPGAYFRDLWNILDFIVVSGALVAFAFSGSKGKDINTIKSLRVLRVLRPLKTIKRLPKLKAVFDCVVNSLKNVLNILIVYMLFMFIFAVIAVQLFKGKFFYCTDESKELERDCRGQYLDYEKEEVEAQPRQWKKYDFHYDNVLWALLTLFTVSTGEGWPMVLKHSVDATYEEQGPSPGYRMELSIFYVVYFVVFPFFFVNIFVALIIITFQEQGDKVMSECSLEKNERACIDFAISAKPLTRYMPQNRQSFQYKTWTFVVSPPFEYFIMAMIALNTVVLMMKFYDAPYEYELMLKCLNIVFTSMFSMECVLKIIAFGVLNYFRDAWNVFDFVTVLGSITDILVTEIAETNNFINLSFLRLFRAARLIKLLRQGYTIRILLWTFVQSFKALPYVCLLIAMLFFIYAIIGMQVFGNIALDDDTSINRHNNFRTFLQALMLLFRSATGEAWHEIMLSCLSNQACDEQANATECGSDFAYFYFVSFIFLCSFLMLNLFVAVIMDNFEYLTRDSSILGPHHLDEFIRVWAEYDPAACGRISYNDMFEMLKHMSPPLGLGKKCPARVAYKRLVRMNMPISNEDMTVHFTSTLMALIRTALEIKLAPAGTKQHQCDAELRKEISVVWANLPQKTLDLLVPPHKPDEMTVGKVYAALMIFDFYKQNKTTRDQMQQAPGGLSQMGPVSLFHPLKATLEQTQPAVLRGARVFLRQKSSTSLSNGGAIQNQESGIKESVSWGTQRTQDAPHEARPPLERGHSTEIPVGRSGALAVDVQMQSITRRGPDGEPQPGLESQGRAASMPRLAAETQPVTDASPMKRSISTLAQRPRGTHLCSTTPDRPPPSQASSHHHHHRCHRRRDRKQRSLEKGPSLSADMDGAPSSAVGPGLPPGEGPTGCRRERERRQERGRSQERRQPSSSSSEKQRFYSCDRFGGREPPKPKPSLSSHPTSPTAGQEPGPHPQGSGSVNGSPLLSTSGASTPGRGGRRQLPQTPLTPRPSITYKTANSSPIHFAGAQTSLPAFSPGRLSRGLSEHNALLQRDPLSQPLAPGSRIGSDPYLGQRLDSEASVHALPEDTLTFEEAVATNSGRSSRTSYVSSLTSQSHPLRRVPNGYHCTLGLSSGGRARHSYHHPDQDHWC
T2 sequence (Q02410 whole entry): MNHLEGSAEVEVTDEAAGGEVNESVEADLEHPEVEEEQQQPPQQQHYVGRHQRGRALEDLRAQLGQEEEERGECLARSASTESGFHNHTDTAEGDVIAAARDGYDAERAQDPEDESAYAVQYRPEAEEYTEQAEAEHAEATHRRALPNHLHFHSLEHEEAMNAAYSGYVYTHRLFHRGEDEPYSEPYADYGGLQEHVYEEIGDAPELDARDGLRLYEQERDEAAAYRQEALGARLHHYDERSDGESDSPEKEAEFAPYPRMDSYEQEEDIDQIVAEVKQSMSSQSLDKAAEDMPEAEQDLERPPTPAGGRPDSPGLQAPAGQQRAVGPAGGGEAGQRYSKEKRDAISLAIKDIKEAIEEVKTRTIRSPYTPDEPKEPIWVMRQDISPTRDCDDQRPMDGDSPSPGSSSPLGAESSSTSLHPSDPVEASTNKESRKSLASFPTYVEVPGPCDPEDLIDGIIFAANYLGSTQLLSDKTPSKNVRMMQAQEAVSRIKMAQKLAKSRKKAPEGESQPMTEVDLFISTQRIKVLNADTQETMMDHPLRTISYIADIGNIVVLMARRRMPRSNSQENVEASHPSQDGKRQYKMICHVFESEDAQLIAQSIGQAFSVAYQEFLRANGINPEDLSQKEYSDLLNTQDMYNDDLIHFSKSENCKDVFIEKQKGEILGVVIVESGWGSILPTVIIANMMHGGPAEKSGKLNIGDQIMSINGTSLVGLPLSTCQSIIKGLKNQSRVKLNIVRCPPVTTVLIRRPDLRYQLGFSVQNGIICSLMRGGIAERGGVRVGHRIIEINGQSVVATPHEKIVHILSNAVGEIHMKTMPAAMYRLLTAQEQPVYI

[4] = target: Induced myeloid leukemia cell differentiation protein Mcl-1 (Homo sapiens, UniProt Q07820); assay type: functional
[5] = target: T2, Voltage-gated N-type calcium channel alpha-1B subunit/Amyloid beta A4 precursor protein-binding family A member 1; test: disruptors of Mint-PDZ/N-type channel peptide interaction – biochemical, HTRF, set 2, SAR follow-up (AID 434980); assay type: functional
[6] = target: T2, Voltage-gated N-type calcium channel alpha-1B subunit/Amyloid beta A4 precursor protein-binding family A member 1; assay type: protein assay; remark: listed apart in the source
SUMO E1/E2 = SUMO E1/E2 (Homo sapiens, UniProt P63279+Q9UBE0+Q9UBT2); test: SAR analysis of SUMOylation using HTRF in an in-Vitro dose response assay. [Related pubchem assays (depositor defined):AID2006, AID2011, AID2018, AID2069, AID2658]; assay type: functional
[7] = target: T2, Voltage-gated N-type calcium channel alpha-1B subunit/Amyloid beta A4 precursor protein-binding family A member 1; test: disruptors of Mint-PDZ/N-type channel peptide interaction – biochemical, HTRF, SAR follow-up (AID 2489); assay type: functional
[8] = target: Lysine-specific demethylase 4C (Homo sapiens, UniProt Q9H3R0); test: inhibition of JMJD2C H3K9me3 demethylation – biochemical, DELFIA europium, cherry-picked samples, dose response (AID 488835); assay type: functional
Genome polyprotein = Genome polyprotein (dengue virus type 2, UniProt P29990); test: flavivirus cap methylation enzyme inhibition – biochemical, confirmation dose response, primary screen (AID 588689); assay type: functional
CHO-K1 = test: (§1) Counterscreen for antagonists of the orexin 1 receptor (OX1R; HCRTR1): Homogeneous time resolved fluorescence (HTRF)-based cell-based dose response assay to identify antagonists of the parental CHO-K1 cell line. [Related pubchem assays (depositor defined):AID434989, AID435008, AID463079, AID485270, AID492963, AID492964, AID492965, AID493232, AID504699, AID504701]; assay type: functional; conditions: Cricetulus griseus
[9] = as §1, with “Fluorescence-based” for “Homogeneous time resolved fluorescence (HTRF)-based”, “cell-based high throughput” for “cell-based”, “CHO” for “CHO-K1”; assay type: functional
[10] = target: T3, Orexin/Hypocretin receptor type 1 (Homo sapiens, UniProt O43613); test: Homogeneous Time Resolved Fluorescence (HTRF)-based cell-based high throughput dose response assay for antagonists of the orexin 1 receptor (OX1R; HCRTR1). [Related pubchem assays (depositor defined):AID434989, AID435008, AID463079, AID485270, AID492963, AID492964, AID492965, AID493232, AID504717, AID504718]; assay type: functional
T3 sequence (O43613 whole entry): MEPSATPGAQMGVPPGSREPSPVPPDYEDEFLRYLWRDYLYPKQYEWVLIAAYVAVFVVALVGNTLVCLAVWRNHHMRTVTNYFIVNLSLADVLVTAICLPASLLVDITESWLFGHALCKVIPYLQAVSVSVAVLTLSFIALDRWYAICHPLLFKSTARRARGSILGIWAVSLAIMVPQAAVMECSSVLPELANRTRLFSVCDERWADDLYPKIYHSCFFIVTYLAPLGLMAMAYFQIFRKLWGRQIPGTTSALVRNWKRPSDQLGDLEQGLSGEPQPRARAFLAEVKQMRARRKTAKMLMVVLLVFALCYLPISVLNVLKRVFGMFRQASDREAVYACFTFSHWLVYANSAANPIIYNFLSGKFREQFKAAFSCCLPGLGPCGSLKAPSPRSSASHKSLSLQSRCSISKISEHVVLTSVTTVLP

[11] = target: T3, Orexin/Hypocretin receptor type 1; test: Fluorescence-based cell-based high throughput dose response assay for antagonists of the orexin 1 receptor (OX1R; HCRTR1). [Related pubchem assays (depositor defined):AID434989, AID435008, AID463079, AID485270, AID492963, AID492964, AID492965, AID493232, AID504717, AID504718]; assay type: functional
Paired box protein Pax-8 = Paired box protein Pax-8 (Homo sapiens, UniProt Q06710); test: PAX8 transcriptional activity inhibition in RMG-I – RMG-I cells, luciferase, cherry-pick, dose response (AID 687027); assay type: functional, cell-based;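 further: luciferase reporter driven by Pax8 target thyroperoxidase promoter measured by SteadyGlo luminescence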
[12] = Trypanosoma cruzi growth suppression in host cells – NIH3T3 host cells, beta-gal luminescence, confirmation (AID 2044); assay type: functional, cell-based;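 further: intracellular parasites grown in NIH/3T3 mouse fibroblasts as host cells; luminescent beta-galactosidase reporter signal from transgenic T. cruzi replicating inside host cells; inhibitors lower the luminescence signal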
Vero [13] = test: cells; assay type: functional; conditions: Chlorocebus sabaeus
HEK293 [14] = test: cells; assay type: functional, cell-based; conditions: Homo sapiens
[15] = target: Nucleotide-binding oligomerization domain-containing protein 2 (Homo sapiens, UniProt Q9HC29); test: inhibition of NOD2-driven NF-kB reporter – cell-based, luminescence, uHTS, HEK293 (AID 1566); assay type: functional
Sequence of Nucleotide-binding oligomerization domain-containing protein 2 (Q9HC29 whole entry, the tested form may be a part): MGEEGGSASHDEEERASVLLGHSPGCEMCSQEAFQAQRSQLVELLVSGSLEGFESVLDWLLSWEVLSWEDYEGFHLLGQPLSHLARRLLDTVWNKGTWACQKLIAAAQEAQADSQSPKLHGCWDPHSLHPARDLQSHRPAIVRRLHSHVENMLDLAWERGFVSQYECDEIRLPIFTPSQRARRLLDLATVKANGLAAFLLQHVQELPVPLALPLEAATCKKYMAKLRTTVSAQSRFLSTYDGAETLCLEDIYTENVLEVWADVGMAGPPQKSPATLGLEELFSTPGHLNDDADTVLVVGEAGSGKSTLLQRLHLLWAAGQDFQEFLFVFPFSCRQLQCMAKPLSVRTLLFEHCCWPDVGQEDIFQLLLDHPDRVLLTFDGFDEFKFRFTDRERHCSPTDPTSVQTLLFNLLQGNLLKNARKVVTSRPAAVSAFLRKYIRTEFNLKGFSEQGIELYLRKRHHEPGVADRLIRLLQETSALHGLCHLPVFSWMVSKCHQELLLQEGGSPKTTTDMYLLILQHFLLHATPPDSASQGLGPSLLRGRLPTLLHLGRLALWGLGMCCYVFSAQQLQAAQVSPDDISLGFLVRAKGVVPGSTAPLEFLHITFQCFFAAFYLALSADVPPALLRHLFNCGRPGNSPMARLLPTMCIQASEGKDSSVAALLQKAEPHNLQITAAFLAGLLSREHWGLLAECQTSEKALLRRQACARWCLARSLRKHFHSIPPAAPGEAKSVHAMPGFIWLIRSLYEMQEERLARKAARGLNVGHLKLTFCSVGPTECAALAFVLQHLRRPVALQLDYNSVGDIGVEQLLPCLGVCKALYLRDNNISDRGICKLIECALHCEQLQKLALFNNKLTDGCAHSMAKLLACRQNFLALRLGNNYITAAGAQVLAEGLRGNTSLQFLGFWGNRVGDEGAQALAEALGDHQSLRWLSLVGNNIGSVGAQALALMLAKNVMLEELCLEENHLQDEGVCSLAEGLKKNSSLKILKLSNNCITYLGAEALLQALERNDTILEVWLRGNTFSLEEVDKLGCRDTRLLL

INS1 = test: INS-1E survival protection against cytokine death – cell-based, luminescence, retest, dose response (AID 449756); assay type: functional; conditions: Rattus norvegicus;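 further: cell death triggered by IL-1 beta plus TNF-alpha plus IFN-gamma mixture; protective hits raise ATP signal compared with cytokine alone wells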
HEK293 [16] = test: cells; assay type: functional, cell-based; conditions: Homo sapiens; remark: listed apart in the source
[17] = NIH3T3 cell viability loss – ATP luminescence, mouse fibroblasts, counter-screen, dose response (AID 2010); assay type: functional, cell-based;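 further: cells exposed to compound for about 90 hours before reading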
Vero [18] = test: cells; assay type: functional, cell-based; conditions: Chlorocebus sabaeus
HEK293 [19] = test: NOD2 signaling inhibitors in MDP-stimulated cells, cell-based, uHTS, luminescence (AID 2001); assay type: functional; conditions: Homo sapiens
HEK293 [20] = test: inhibition of NOD1-driven NF-kB reporter – cell-based, luminescence, uHTS, primary screen (AID 1578); assay type: functional; conditions: Homo sapiens
HEK293 [21] = test: cells; assay type: functional, cell-based; conditions: Homo sapiens; remark: listed apart in the source
Nonstructural protein 1 = Nonstructural protein 1 (Influenza A virus, UniProt Q194T2); assay type: functional, Influenza A virus (A/California/07/2009(H1N1))
Sequence of Nonstructural protein 1 (Q194T2 whole entry): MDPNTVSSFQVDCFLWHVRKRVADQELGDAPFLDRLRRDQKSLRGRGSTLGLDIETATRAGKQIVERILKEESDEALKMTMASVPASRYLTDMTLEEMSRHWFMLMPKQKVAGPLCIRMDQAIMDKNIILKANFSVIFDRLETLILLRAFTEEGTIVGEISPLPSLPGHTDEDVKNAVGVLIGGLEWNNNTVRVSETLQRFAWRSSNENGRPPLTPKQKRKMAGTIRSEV

Vero [22] = test: viability of Vero cells under compound – cytotoxicity control for flavivirus capping enzyme inhibitors (AID 588742); assay type: functional; conditions: Chlorocebus sabaeus

T1 sequence (P98170 whole entry): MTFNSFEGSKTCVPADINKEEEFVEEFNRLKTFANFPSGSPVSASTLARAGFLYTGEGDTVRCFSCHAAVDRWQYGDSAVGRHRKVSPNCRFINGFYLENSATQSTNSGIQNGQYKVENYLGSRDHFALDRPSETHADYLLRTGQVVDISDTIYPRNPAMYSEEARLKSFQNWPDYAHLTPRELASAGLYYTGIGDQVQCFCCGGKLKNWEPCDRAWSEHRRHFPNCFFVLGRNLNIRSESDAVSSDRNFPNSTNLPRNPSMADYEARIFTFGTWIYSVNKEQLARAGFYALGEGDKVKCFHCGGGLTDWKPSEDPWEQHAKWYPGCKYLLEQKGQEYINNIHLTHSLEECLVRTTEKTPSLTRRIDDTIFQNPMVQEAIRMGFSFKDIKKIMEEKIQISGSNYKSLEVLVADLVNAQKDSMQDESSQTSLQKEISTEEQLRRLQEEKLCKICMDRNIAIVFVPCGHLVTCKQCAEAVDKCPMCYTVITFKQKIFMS

With `COc1cc(NC(=O)C2CCCN2S(=O)(=O)c2cccc3cccnc23)cc(OC)c1OC` (stereo not drawn) as the molecule, how does the IC50 [1] read?
The IC50 was > 100 µM (inactive).

What about the IC50 [2] of the same molecule?
Its IC50 is > 100 µM (not active).

Which IC50 [3] does the source give for `CCNC(=O)COC(=O)c1cc(-c2ccco2)nc2ccccc12` here?
The IC50 was 2.82 µM (active).

What about the IC50 [4] of the same molecule?
The IC50 was 4.39 µM (active).

And the IC50 [5]?
The IC50 was 13.3 µM (active).

What about the IC50 [6] of the same molecule?
The IC50 was 33.6 µM (active).

And the IC50 (SUMO E1/E2)?
Its IC50 is 2.63 µM (active).

And the IC50 [7]?
Its IC50 is 18.5 µM (active).

For `Cc1cc(C)cc(OCCOc2cccc(C=C3C(=O)NC(=O)NC3=O)c2)c1`, which AC50 [8] is on record?
The AC50 was > 60 µM (inactive).

And the IC50 (Genome polyprotein)?
The IC50 was 46.9 µM (active).

With `COc1cc2ccccc2cc1C(=O)Nc1ccc(N2CCOCC2)cc1` as the molecule, how does the IC50 (CHO-K1) read?
Its IC50 is > 66.3 µM (inactive).

What about the IC50 [9] of the same molecule?
The IC50 was > 49.8 µM (inactive).

And the IC50 [10]?
The IC50 was 8.59 µM (active).

What about the IC50 [11] of the same molecule?
Its IC50 is > 49.8 µM (inactive).

For `C=C(C(=O)c1ccccc1)C(C(=C)C(=O)c1ccccc1)c1ccc(OC)cc1`, which AC50 (Paired box protein Pax-8) is on record?
The AC50 was 2.66 µM (active).

What about the EC50 [12] of the same molecule?
Its EC50 is 2.88 µM (active).

What about the CC50 (Vero [13]) of the same molecule?
The CC50 was 11.2 µM (active).

And the IC50 (HEK293 [14])?
Its IC50 is > 20 µM (inactive).

And the EC50 [15]?
Its EC50 is > 20 µM (inactive).

And the AC50 (INS1)?
The AC50 was 6.58 µM (active).

And the IC50 (HEK293 [16])?
Its IC50 is 5.78 µM (active).

What about the EC50 [17] of the same molecule?
The EC50 was 10.4 µM (active).

What about the IC50 (Vero [18]) of the same molecule?
The IC50 was > 25 µM (active).

What about the IC50 (HEK293 [19]) of the same molecule?
The IC50 was 5.4 µM (inactive).

And the EC50 (HEK293 [20])?
The EC50 was > 20 µM (inactive).

What about the IC50 (HEK293 [21]) of the same molecule?
Its IC50 is > 20 µM (inactive).

Which IC50 (Nonstructural protein 1) does the source give for `O=C1/C(=C\c2cccc([N+](=O)[O-])c2O)SC(=S)N1Cc1ccccc1` here?
The IC50 was 16.4 µM (active).

And the IC50 (HEK293 [14])?
Its IC50 is 18.9 µM (active).

What about the EC50 [15] of the same molecule?
The EC50 was 9.56 µM (active).

What about the CC50 (Vero [22]) of the same molecule?
Its CC50 is 22.8 µM (active).

What about the IC50 (HEK293 [19]) of the same molecule?
The IC50 was 4.7 µM (inactive).

And the EC50 (HEK293 [20])?
The EC50 was 5.91 µM (active).

What about the IC50 (HEK293 [21]) of the same molecule?
The IC50 was > 20 µM (inactive).
